In PubChem BioAssay (NCI):
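Following 48 hours of exposure in 96-well plates, responses at five concentrations were used to interpolate endpoints linearly. The concentration for 50% growth inhibition is given as GI50. Definition used: TGI = concentration required for complete inhibition of growth.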

Columns and labels:
Assay in all cases: NCI anticancer screen, dose series, 48 h
[1] = test system: 786-0 renal
[2] = test system: A498 renal
[3] = test system: ACHN renal
[4] = test system: BT-549 breast
[5] = test system: CCRF-CEM leukemia
[6] = test system: DU-145 prostate
[7] = test system: HCT-116 colon
[8] = test system: HOP-62 NSCLC
[9] = test system: HS 578T breast
[10] = test system: K-562 leukemia
[11] = test system: PC-3 prostate
[12] = test system: RPMI-8226 leukemia
[13] = test system: SF-295 CNS
[14] = test system: SK-MEL-2 melanoma
[15] = test system: SK-OV-3 ovarian
[16] = test system: SNB-19 CNS
[17] = test system: SNB-75 CNS
[18] = test system: SR leukemia
[19] = test system: U251 CNS
[20] = test system: A549 NSCLC
[21] = test system: CAKI-1 renal
[22] = test system: COLO 205 colon
[23] = test system: EKVX NSCLC
[24] = test system: HCC-2998 colon
[25] = test system: HCT-15 colon
[26] = test system: HL-60(TB) leukemia
[27] = test system: HOP-92 NSCLC
[28] = test system: HT29 colon
[29] = test system: IGROV1 ovarian
[30] = test system: KM12 colon
[31] = test system: LOX IMVI melanoma
[32] = test system: M14 melanoma
[33] = test system: MALME-3M melanoma
[34] = test system: MCF7 breast
[35] = test system: MDA-MB-231 breast
[36] = test system: MDA-MB-435
[37] = test system: MOLT-4 leukemia
[38] = test system: NCI-H226 lung
[39] = test system: NCI-H23 lung
[40] = test system: NCI-H460 lung
[41] = test system: NCI-H522 lung
[42] = test system: NCI/ADR-RES ovarian
[43] = test system: OVCAR-4 ovarian
[44] = test system: OVCAR-5 ovarian
[45] = test system: OVCAR-8 ovarian
[46] = test system: RXF 393 renal
[47] = test system: SF-268 CNS
[48] = test system: SF-539 CNS
[49] = test system: SK-MEL-28 melanoma
[50] = test system: SK-MEL-5 melanoma
[51] = test system: SN12C renal
[52] = test system: SW-620 colon
[53] = test system: T-47D breast
[54] = test system: TK-10 renal
[55] = test system: UACC-257 melanoma
[56] = test system: UACC-62 melanoma
[57] = test system: UO-31 renal

## NC(=O)c1c(NC(=O)c2cccc(C(F)(F)F)c2F)sc2c1CCC(=O)C2
[1]
  GI50: 2200 nM
  TGI: > 100 µM
[2]
  GI50: > 100000 nM
  TGI: > 100 µM
[3]
  GI50: 337 nM
  TGI: > 100 µM
[4]
  GI50: 327 nM
  TGI: > 100 µM
[5]
  GI50: 212 nM
  TGI: > 100 µM
[6]
  GI50: > 100000 nM
  TGI: > 100 µM
[7]
  GI50: 306 nM
  TGI: > 100 µM
[8]
  GI50: 6690 nM
  TGI: > 100 µM
[9]
  GI50: 831 nM
  TGI: > 100 µM
[10]
  GI50: 231 nM
  TGI: > 100 µM
[11]
  GI50: 270 nM
  TGI: > 100 µM
[12]
  GI50: 231 nM
[13]
  GI50: 3090 nM
  TGI: > 100 µM
[14]
  GI50: > 100000 nM
  TGI: > 100 µM
[15]
  GI50: > 100000 nM
  TGI: > 100 µM
[16]
  GI50: 577 nM
  TGI: > 100 µM
[17]
  GI50: 2160 nM
  TGI: 39.1 µM
[18]
  GI50: 326 nM
  TGI: > 100 µM
[19]
  GI50: 315 nM
  TGI: > 100 µM

## CC(C)(C)c1cc(NC(=O)Nc2ccc(-c3cn4c5c(sc4n3)CCc3c[nH]cc3-5)cc2)no1
[1]
  GI50: 754 nM
  TGI: 2.1 µM
[2]
  GI50: 1040 nM
  TGI: 2.62 µM
[20]
  GI50: 2020 nM
  TGI: > 50 µM
[3]
  GI50: 1980 nM
  TGI: > 50 µM
[4]
  GI50: 1310 nM
  TGI: 4.22 µM
[21]
  GI50: 1490 nM
  TGI: > 50 µM
[5]
  GI50: 1790 nM
  TGI: > 50 µM
[22]
  GI50: 1000 nM
  TGI: 2230 nM
[6]
  GI50: 2310 nM
  TGI: > 50 µM
[23]
  GI50: 2050 nM
  TGI: > 50 µM
[24]
  GI50: 1680 nM
  TGI: 7.49 µM
[7]
  GI50: 1700 nM
  TGI: 12.5 µM
[25]
  GI50: 1190 nM
  TGI: 4.28 µM
[26]
  GI50: 1510 nM
  TGI: > 50 µM
[8]
  GI50: 1150 nM
  TGI: 2.74 µM
[27]
  GI50: 1060 nM
  TGI: 3.67 µM
[9]
  GI50: 950 nM
  TGI: 2.94 µM
[28]
  GI50: 949 nM
  TGI: 1920 nM
[29]
  GI50: 2360 nM
  TGI: > 50 µM
[10]
  GI50: 1240 nM
  TGI: > 50 µM
[30]
  GI50: 1550 nM
  TGI: 6.1 µM
[31]
  GI50: 1300 nM
  TGI: 3.23 µM
[32]
  GI50: 1450 nM
  TGI: 4.9 µM
[33]
  GI50: 1440 nM
  TGI: 4.06 µM
[34]
  GI50: 1080 nM
  TGI: 3.12 µM
[35]
  GI50: 2000 nM
  TGI: 18.1 µM
[36]
  GI50: 1970 nM
  TGI: > 50 µM
[37]
  GI50: 1260 nM
  TGI: > 50 µM
[38]
  GI50: 2280 nM
  TGI: > 50 µM
[39]
  GI50: 1420 nM
  TGI: 4.87 µM
[40]
  GI50: 1570 nM
  TGI: 5.34 µM
[41]
  GI50: 1690 nM
  TGI: 6.7 µM
[42]
  GI50: 1890 nM
  TGI: > 50 µM
[43]
  GI50: 2620 nM
  TGI: > 50 µM
[44]
  GI50: 2960 nM
  TGI: > 50 µM
[45]
  GI50: 2480 nM
  TGI: > 50 µM
[11]
  GI50: 1540 nM
  TGI: > 50 µM
[12]
  GI50: 1080 nM
  TGI: 4.14 µM
[46]
  GI50: 333 nM
  TGI: 1800 nM
[47]
  GI50: 1920 nM
  TGI: 16.5 µM
[13]
  GI50: 738 nM
  TGI: 1.74 µM
[48]
  GI50: 875 nM
  TGI: 4.17 µM
[14]
  GI50: 1240 nM
  TGI: 3.15 µM
[49]
  GI50: 1540 nM
  TGI: 9.5 µM
[50]
  GI50: 1020 nM
  TGI: 2110 nM
[15]
  GI50: 2120 nM
  TGI: 31.3 µM
[51]
  GI50: 3000 nM
  TGI: > 50 µM
[16]
  GI50: 1580 nM
  TGI: > 50 µM
[17]
  GI50: 990 nM
  TGI: 4.01 µM
[52]
  GI50: 2130 nM
  TGI: 15 µM
[53]
  GI50: 1190 nM
  TGI: 3.75 µM
[54]
  GI50: 3410 nM
  TGI: > 50 µM
[19]
  GI50: 738 nM
  TGI: 3.78 µM
[55]
  GI50: 2310 nM
  TGI: 13.9 µM
[56]
  GI50: 1640 nM
  TGI: 5.88 µM
[57]
  GI50: 1330 nM
  TGI: 3.9 µM

## CCCCCc1ccc(S(=O)(=O)Nc2cccc(-c3csc(NCCN4CCN(C)CC4)n3)c2)cc1
[1]
  GI50: 1670 nM
  TGI: 3.08 µM
[2]
  GI50: 1530 nM
  TGI: 3.12 µM
[20]
  GI50: 1720 nM
  TGI: 3.3 µM
[3]
  GI50: 1750 nM
  TGI: 3.24 µM
[4]
  GI50: 1560 nM
  TGI: 2.97 µM
[21]
  GI50: 1520 nM
  TGI: 3.19 µM
[5]
  GI50: 2590 nM
  TGI: 9.63 µM
[22]
  GI50: 1640 nM
  TGI: 3160 nM
[6]
  GI50: 1960 nM
  TGI: 3.92 µM
[23]
  GI50: 1670 nM
  TGI: 3.61 µM
[24]
  GI50: 1750 nM
  TGI: 3.24 µM
[25]
  GI50: 1680 nM
  TGI: 3.31 µM
[26]
  GI50: 2310 nM
  TGI: 5.34 µM
[8]
  GI50: 1730 nM
  TGI: 3.32 µM
[27]
  GI50: 1280 nM
  TGI: 2.73 µM
[9]
  GI50: 1830 nM
  TGI: 4.22 µM
[28]
  GI50: 1900 nM
  TGI: 3710 nM
[29]
  GI50: 1630 nM
  TGI: 3.18 µM
[10]
  GI50: 3020 nM
  TGI: > 100 µM
[30]
  GI50: 1720 nM
  TGI: 3.22 µM
[31]
  GI50: 1690 nM
  TGI: 3.13 µM
[32]
  GI50: 1770 nM
  TGI: 3.42 µM
[33]
  GI50: 1540 nM
  TGI: 2.99 µM
[34]
  GI50: 1690 nM
  TGI: 3.33 µM
[35]
  GI50: 1630 nM
  TGI: 3.3 µM
[36]
  GI50: 1700 nM
  TGI: 3.3 µM
[37]
  GI50: 3360 nM
  TGI: 14.6 µM
[38]
  GI50: 1850 nM
  TGI: 3.93 µM
[39]
  GI50: 1810 nM
  TGI: 3.62 µM
[40]
  GI50: 1780 nM
  TGI: 3.29 µM
[41]
  GI50: 1800 nM
  TGI: 3.43 µM
[42]
  GI50: 1840 nM
  TGI: 4.25 µM
[43]
  GI50: 2020 nM
  TGI: 5.18 µM
[44]
  GI50: 1890 nM
  TGI: 4.01 µM
[45]
  GI50: 1840 nM
  TGI: 3.5 µM
[11]
  GI50: 1860 nM
  TGI: 4.42 µM
[46]
  GI50: 1410 nM
  TGI: 2900 nM
[47]
  GI50: 1760 nM
  TGI: 3.63 µM
[13]
  GI50: 1860 nM
  TGI: 3.54 µM
[48]
  GI50: 1700 nM
  TGI: 3.11 µM
[14]
  GI50: 1760 nM
  TGI: 3.33 µM
[49]
  GI50: 1870 nM
  TGI: 3.36 µM
[50]
  GI50: 1780 nM
  TGI: 3190 nM
[15]
  GI50: 1750 nM
  TGI: 3.35 µM
[51]
  GI50: 2010 nM
  TGI: 4.48 µM
[16]
  GI50: 1960 nM
  TGI: 4.05 µM
[17]
  GI50: 1390 nM
  TGI: 2.89 µM
[18]
  GI50: 2470 nM
  TGI: > 100 µM
[52]
  GI50: 1660 nM
  TGI: 3.12 µM
[54]
  GI50: 1800 nM
  TGI: 3.61 µM
[19]
  GI50: 1700 nM
  TGI: 3.23 µM
[55]
  GI50: 1730 nM
  TGI: 3.27 µM
[56]
  GI50: 1820 nM
  TGI: 3.47 µM
[57]
  GI50: 1420 nM
  TGI: 2.94 µM
